# Measurements from ChEMBL document CHEMBL4184286, “Discovery of morpholine-based aryl sulfonamides as Nav1.7 inhibitors” (Bioorg Med Chem Lett, 2018).
# Columns and labels:
# [1] = molecular target: Sodium channel protein type 9 subunit alpha (Homo sapiens, UniProt Q15858); assay: Antagonist activity at recombinant human Nav1.7 expressed in HEK293 cells assessed as reduction in channel current at -60 mV holding potential after 600 secs by barracuda automated electrophysiology method; format: cell-based
# Sequence of Sodium channel protein type 9 subunit alpha (Q15858 whole entry): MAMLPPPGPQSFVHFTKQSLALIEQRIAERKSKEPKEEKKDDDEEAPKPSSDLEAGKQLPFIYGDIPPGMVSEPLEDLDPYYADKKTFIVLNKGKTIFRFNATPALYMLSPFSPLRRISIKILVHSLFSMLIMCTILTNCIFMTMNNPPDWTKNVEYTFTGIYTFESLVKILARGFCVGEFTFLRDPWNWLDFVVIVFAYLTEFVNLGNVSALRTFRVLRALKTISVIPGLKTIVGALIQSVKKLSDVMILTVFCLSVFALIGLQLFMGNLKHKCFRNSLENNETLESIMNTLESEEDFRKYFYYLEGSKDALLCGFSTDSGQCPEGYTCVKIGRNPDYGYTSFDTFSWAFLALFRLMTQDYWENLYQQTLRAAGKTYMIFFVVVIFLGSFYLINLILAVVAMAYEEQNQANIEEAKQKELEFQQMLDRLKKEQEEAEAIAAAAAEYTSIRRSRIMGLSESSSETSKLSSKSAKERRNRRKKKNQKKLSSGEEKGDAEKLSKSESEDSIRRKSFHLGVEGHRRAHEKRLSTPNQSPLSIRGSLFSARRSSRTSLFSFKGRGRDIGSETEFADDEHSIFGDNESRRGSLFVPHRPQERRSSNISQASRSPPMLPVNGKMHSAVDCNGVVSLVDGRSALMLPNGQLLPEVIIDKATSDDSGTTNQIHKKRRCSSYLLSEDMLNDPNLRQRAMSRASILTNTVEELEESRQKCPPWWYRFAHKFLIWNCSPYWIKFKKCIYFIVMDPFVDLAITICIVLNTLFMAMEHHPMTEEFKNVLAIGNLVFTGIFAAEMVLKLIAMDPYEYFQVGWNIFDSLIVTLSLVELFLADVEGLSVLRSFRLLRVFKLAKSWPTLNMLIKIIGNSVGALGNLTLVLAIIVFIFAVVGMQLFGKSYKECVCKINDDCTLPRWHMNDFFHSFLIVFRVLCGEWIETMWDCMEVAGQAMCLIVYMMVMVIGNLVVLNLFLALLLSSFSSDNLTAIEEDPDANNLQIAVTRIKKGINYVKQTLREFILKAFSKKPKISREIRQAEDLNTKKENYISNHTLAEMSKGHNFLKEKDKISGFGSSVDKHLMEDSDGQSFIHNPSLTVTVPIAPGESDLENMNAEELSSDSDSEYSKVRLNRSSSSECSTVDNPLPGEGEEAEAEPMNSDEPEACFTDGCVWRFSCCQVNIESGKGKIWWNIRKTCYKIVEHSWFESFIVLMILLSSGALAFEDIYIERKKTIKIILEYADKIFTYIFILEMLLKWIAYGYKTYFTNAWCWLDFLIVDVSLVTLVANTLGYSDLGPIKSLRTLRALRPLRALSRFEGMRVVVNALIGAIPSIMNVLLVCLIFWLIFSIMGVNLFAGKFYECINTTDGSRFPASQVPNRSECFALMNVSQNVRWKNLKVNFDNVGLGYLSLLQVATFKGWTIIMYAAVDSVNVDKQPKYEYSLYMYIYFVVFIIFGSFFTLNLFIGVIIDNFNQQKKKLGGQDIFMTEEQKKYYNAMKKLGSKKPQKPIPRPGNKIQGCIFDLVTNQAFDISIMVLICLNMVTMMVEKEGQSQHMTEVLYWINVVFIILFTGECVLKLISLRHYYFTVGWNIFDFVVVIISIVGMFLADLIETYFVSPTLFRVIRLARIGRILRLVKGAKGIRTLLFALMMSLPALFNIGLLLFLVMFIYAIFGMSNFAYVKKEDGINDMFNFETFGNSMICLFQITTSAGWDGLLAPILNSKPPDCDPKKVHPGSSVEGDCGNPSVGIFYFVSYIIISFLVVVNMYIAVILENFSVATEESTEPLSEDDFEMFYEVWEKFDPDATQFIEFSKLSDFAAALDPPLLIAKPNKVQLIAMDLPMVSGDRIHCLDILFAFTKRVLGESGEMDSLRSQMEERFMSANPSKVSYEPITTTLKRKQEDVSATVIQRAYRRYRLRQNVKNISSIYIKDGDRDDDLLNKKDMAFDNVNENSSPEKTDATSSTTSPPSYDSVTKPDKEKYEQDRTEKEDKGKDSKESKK
# [2] = molecular target: Sodium channel protein type 5 subunit alpha (Homo sapiens, UniProt Q14524); assay: Antagonist activity at recombinant human Nav1.5 expressed in HEK293 cells assessed as reduction in channel current at -50 mV holding potential after 600 secs by barracuda automated electrophysiology method; format: ADME, cell-based
# Sequence of Sodium channel protein type 5 subunit alpha (Q14524 whole entry): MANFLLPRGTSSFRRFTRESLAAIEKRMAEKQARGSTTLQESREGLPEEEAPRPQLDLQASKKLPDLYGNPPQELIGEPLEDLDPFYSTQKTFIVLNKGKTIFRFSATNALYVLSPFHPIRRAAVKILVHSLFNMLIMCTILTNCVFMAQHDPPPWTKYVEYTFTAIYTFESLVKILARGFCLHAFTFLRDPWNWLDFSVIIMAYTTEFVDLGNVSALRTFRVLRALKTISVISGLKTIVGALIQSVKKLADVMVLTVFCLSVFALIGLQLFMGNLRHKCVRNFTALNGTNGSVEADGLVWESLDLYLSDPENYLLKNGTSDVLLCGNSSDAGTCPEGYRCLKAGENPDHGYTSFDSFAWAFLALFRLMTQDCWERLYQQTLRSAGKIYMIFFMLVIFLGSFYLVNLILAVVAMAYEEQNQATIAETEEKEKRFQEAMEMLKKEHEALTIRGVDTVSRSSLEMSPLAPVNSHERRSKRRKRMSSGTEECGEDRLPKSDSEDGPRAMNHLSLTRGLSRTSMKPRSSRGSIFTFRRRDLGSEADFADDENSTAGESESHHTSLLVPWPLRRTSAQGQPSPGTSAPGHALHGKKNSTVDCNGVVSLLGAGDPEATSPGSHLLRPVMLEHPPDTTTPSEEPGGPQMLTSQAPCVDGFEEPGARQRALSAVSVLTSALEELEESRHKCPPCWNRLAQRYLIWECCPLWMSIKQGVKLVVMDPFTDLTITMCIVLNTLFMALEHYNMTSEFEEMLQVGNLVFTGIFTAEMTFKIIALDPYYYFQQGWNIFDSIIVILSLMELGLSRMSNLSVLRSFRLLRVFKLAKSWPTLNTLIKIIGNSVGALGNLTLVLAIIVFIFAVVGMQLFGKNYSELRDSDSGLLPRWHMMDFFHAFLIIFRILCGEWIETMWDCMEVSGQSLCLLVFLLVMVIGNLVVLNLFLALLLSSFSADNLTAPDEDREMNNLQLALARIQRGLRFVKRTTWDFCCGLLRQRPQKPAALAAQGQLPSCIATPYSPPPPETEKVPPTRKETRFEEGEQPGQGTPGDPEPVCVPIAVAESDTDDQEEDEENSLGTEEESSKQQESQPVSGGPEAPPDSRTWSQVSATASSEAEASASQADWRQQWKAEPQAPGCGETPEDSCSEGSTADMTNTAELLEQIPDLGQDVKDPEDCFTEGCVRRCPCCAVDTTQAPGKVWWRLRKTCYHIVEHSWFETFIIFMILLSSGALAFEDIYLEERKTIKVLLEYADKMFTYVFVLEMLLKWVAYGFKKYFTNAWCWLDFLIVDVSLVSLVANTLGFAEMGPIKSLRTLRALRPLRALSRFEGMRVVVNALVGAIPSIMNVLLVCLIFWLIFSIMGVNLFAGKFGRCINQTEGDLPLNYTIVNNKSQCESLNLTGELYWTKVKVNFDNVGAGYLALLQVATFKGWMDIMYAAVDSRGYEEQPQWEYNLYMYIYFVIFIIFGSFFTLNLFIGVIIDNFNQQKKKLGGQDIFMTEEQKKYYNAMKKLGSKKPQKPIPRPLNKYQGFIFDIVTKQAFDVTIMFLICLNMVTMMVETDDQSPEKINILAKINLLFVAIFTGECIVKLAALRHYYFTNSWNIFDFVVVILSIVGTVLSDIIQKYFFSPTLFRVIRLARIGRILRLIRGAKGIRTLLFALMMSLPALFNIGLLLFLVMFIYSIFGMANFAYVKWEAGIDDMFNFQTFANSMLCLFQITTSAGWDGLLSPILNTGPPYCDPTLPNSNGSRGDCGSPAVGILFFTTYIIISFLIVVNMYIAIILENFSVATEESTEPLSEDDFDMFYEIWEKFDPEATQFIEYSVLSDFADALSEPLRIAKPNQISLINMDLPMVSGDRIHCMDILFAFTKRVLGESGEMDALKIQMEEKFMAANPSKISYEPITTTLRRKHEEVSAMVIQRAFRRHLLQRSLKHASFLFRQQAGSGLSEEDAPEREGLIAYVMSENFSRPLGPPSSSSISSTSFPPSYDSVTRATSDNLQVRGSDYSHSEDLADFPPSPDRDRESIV
IC50 [1] [nM],Compound,IC50 [2] [nM],IC50 ([2]; hek293) [nM]
1500,O=S(=O)(Nc1ncns1)c1cc(F)c(OC[C@H]2NCCO[C@@H]2c2ccc(Cl)cc2)cc1F,–,–
2500,O=S(=O)(Nc1ncns1)c1cc(F)c(CO[C@H]2OCCN[C@@H]2c2ccc(F)cc2)cc1F,–,–
29000,O=S(=O)(Nc1ncns1)c1cc(F)c(OC[C@H]2OCCN[C@@H]2c2ccc(Cl)cc2)cc1F,–,–
840,"O=S(=O)(Nc1ncns1)c1cc(F)c(OC2OCCNC2c2cc(Cl)cc(Cl)c2)cc1F (single isomer, unassigned; isomer A)",–,5600
920,"N#Cc1cccc(C2NCCOC2Oc2cc(F)c(S(=O)(=O)Nc3ncns3)cc2F)c1 (single isomer, unassigned; isomer A)",> 30000,–
1500,"N#Cc1ccc(C2NCCOC2Oc2cc(F)c(S(=O)(=O)Nc3ncns3)cc2F)cc1 (single isomer, unassigned; isomer A)",> 30000,–
390,"O=S(=O)(Nc1ncns1)c1cc(F)c(OC2OCCNC2c2ccc(C(F)(F)F)cc2)cc1F (single isomer, unassigned; isomer A)",> 30000,–
1200,"O=S(=O)(Nc1ncns1)c1cc(F)c(OC2OCCNC2c2ccc(Cl)c(Cl)c2)cc1F (single isomer, unassigned; isomer A)",1000,–
350,"CC1(C)COC(Oc2cc(F)c(S(=O)(=O)Nc3ncns3)cc2F)C(c2ccc(Cl)cc2)N1 (single isomer, unassigned; isomer A)",–,–
17000,"O=S(=O)(Nc1ncns1)c1cc(F)c(OC2OCCNC2c2ccc(Cl)nc2)cc1F (single isomer, unassigned; isomer A)",–,> 30000
690,"O=S(=O)(Nc1ncns1)c1cc(F)c(OC2OCCNC2c2ccc(F)cc2)cc1F (single isomer, unassigned; isomer A)",> 30000,–
2800,"O=S(=O)(Nc1ncns1)c1cc(F)c(OC2OCCNC2c2ccc3ncccc3c2)cc1F (single isomer, unassigned; isomer A)",–,> 30000
260,"O=S(=O)(Nc1ncns1)c1cc(F)c(OC2OCCNC2c2ccc(Cl)cc2Cl)cc1F (single isomer, unassigned; isomer A)",1700,–
810,"COc1ccc(C2NCCOC2Oc2cc(F)c(S(=O)(=O)Nc3ncns3)cc2F)cc1 (single isomer, unassigned; isomer A)",> 30000,–
28,"O=S(=O)(Nc1ncns1)c1cc(F)c(OC2OCCNC2c2cc(Cl)cc(Cl)c2)cc1F (single isomer, unassigned; isomer B)",5600,–
11000,"N#Cc1cccc(C2NCCOC2Oc2cc(F)c(S(=O)(=O)Nc3ncns3)cc2F)c1 (single isomer, unassigned; isomer B)",–,> 30000
4000,"N#Cc1ccc(C2NCCOC2Oc2cc(F)c(S(=O)(=O)Nc3ncns3)cc2F)cc1 (single isomer, unassigned; isomer B)",–,> 30000
9700,"O=S(=O)(Nc1ncns1)c1cc(F)c(OC2OCCNC2c2ccc(C(F)(F)F)cc2)cc1F (single isomer, unassigned; isomer B)",–,> 30000
170,"O=S(=O)(Nc1ncns1)c1cc(F)c(OC2OCCNC2c2ccc(Cl)c(Cl)c2)cc1F (single isomer, unassigned; isomer B)",3000,–
580,"CC1(C)COC(Oc2cc(F)c(S(=O)(=O)Nc3ncns3)cc2F)C(c2ccc(Cl)cc2)N1 (single isomer, unassigned; isomer B)",–,–
510,"O=S(=O)(Nc1ncns1)c1cc(F)c(OC2OCCNC2c2ccc3cnccc3c2)cc1F (single isomer, unassigned; isomer B)",> 30000,–
15000,"O=S(=O)(Nc1ncns1)c1cc(F)c(OC2OCCNC2c2ccc(Cl)nc2)cc1F (single isomer, unassigned; isomer B)",> 30000,–
1600,"O=S(=O)(Nc1ncns1)c1cc(F)c(OC2OCCNC2c2ccc3ncccc3c2)cc1F (single isomer, unassigned; isomer B)",> 30000,–
1800,"COc1ccc(C2NCCOC2Oc2cc(F)c(S(=O)(=O)Nc3ncns3)cc2F)cc1 (single isomer, unassigned; isomer B)",–,> 30000

# The remaining lines, values behind:
Compound,IC50 [1] [nM],IC50 [2] [nM],IC50 ([2]; hek293) [nM]
CC1(C)CN[C@@H](c2cc(Cl)cc(Cl)c2)[C@H](Oc2cc(F)c(S(=O)(=O)Nc3ncns3)cc2F)O1,3300,4400,–
"COc1ccccc1C1NCCOC1Oc1cc(F)c(S(=O)(=O)Nc2ncns2)cc1F (single isomer, unassigned; isomer A)",200,> 30000,–
"CN(C)c1noc2ccc(C3NCCOC3Oc3cc(F)c(S(=O)(=O)Nc4ncns4)cc3F)cc12 (single isomer, unassigned; isomer A)",70,–,–
"CC(C)C[C@@H]1COC(Oc2cc(F)c(S(=O)(=O)Nc3ncns3)cc2F)C(c2cc(Cl)cc(Cl)c2)N1 (single isomer, unassigned; isomer A)",1700,–,–
"O=S(=O)(Nc1ncns1)c1cc(F)c(OC2OCCNC2c2cccc3nccnc23)cc1F (single isomer, unassigned; isomer A)",6600,–,> 30000
"CC(C)[C@H]1COC(Oc2cc(F)c(S(=O)(=O)Nc3ncns3)cc2F)C(c2cc(Cl)cc(Cl)c2)N1 (single isomer, unassigned; isomer A)",430,–,–
"O=S(=O)(Nc1ncns1)c1cc(F)c(OC2OCCNC2c2ccc3cnccc3c2)cc1F (single isomer, unassigned; isomer A)",1400,–,> 30000
"Cn1nccc1C1NCCOC1Oc1cc(F)c(S(=O)(=O)Nc2ncns2)cc1F (single isomer, unassigned; isomer A)",5800,–,> 30000
"O=S(=O)(Nc1ncns1)c1cc(F)c(OC2OCCNC2c2cccc(C(F)(F)F)c2)cc1F (single isomer, unassigned; isomer A)",310,580,–
"CC1(C)CNC(c2cc(Cl)cc(Cl)c2)C(Oc2cc(F)c(S(=O)(=O)Nc3ncns3)cc2F)O1 (single isomer, unassigned; isomer A)",140,–,–
"O=S(=O)(Nc1ncns1)c1cc(F)c(OC2OCCNC2c2ccc3c(c2)OCO3)cc1F (single isomer, unassigned; isomer A)",1500,–,> 30000
"CC(C)C[C@H]1COC(Oc2cc(F)c(S(=O)(=O)Nc3ncns3)cc2F)C(c2cc(Cl)cc(Cl)c2)N1 (single isomer, unassigned; isomer A)",1100,–,–
"COc1cccc(C2NCCOC2Oc2cc(F)c(S(=O)(=O)Nc3ncns3)cc2F)c1 (single isomer, unassigned; isomer A)",390,> 30000,–
"COc1ccccc1C1NCCOC1Oc1cc(F)c(S(=O)(=O)Nc2ncns2)cc1F (single isomer, unassigned; isomer B)",4600,–,> 30000
"CN(C)c1noc2ccc(C3NCCOC3Oc3cc(F)c(S(=O)(=O)Nc4ncns4)cc3F)cc12 (single isomer, unassigned; isomer B)",140,5000,–
"CC(C)C[C@@H]1COC(Oc2cc(F)c(S(=O)(=O)Nc3ncns3)cc2F)C(c2cc(Cl)cc(Cl)c2)N1 (single isomer, unassigned; isomer B)",> 30000,–,–
"O=S(=O)(Nc1ncns1)c1cc(F)c(OC2OCCNC2c2cccc3nccnc23)cc1F (single isomer, unassigned; isomer B)",6300,> 30000,–
"CC(C)[C@H]1COC(Oc2cc(F)c(S(=O)(=O)Nc3ncns3)cc2F)C(c2cc(Cl)cc(Cl)c2)N1 (single isomer, unassigned; isomer B)",1100,–,–
"CC(C)[C@@H]1COC(Oc2cc(F)c(S(=O)(=O)Nc3ncns3)cc2F)C(c2cc(Cl)cc(Cl)c2)N1 (single isomer, unassigned; isomer B)",25000,–,–
"O=S(=O)(Nc1ncns1)c1cc(F)c(OC2OCCNC2c2cccc(C(F)(F)F)c2)cc1F (single isomer, unassigned; isomer B)",570,4800,–
"CC1(C)CNC(c2cc(Cl)cc(Cl)c2)C(Oc2cc(F)c(S(=O)(=O)Nc3ncns3)cc2F)O1 (single isomer, unassigned; isomer B)",450,–,–
"O=S(=O)(Nc1ncns1)c1cc(F)c(OC2OCCNC2c2ccc3c(c2)OCO3)cc1F (single isomer, unassigned; isomer B)",1100,> 30000,–
"COc1cccc(C2NCCOC2Oc2cc(F)c(S(=O)(=O)Nc3ncns3)cc2F)c1 (single isomer, unassigned; isomer B)",1600,–,> 30000
"Cn1nc(C(F)(F)F)cc1C1NCCOC1Oc1cc(F)c(S(=O)(=O)Nc2ncns2)cc1F (single isomer, unassigned; isomer B)",4500,> 30000,–
Cn1nccc1C1NCCOC1Oc1cc(F)c(S(=O)(=O)Nc2ncns2)cc1F (stereo in doubt; 55),1800,> 30000,–
CC(C)C[C@H]1COC(Oc2cc(F)c(S(=O)(=O)Nc3ncns3)cc2F)C(c2cc(Cl)cc(Cl)c2)N1 (stereo in doubt; 61),6500,–,–
CC(C)[C@@H]1COC(Oc2cc(F)c(S(=O)(=O)Nc3ncns3)cc2F)C(c2cc(Cl)cc(Cl)c2)N1 (stereo in doubt; 66),14000,–,–
